Data reported in publication PMC4832243, “Discovery of Potent VEGFR-2 Inhibitors based on Furopyrimidine and Thienopyrimidne Scaffolds as Cancer Targeting Agents” (Scientific Reports, 2016).

Key:
SF-295 = test: NCI 60 cell line panel (SRB), SF-295; format: cell-based; settings: Homo sapiens; SF-295, CNS Cancer; single dose of 10 μM; read-out: Cell Growth Percent
SK-MEL-28 = test: NCI 60 cell line panel (SRB), SK-MEL-28; format: cell-based; settings: Homo sapiens; SK-MEL-28, Melanoma; single dose of 10 μM; read-out: Cell Growth Percent
SN12C = test: NCI 60 cell line panel (SRB), SN12C; format: cell-based; settings: Homo sapiens, Renal Cancer, single dose of 10 μM, read-out: Cell Growth Percent
MDA-MB-231/ATCC = test: NCI 60 cell line panel (SRB), MDA-MB-231/ATCC; format: cell-based; settings: Homo sapiens, Breast Cancer, single dose of 10 μM, read-out: Cell Growth Percent
RXF 393 = test: NCI 60 cell line panel (SRB), RXF 393; format: cell-based; settings: Homo sapiens; RXF 393, Renal Cancer; single dose of 10 μM; read-out: Cell Growth Percent
EKVX = test: NCI 60 cell line panel (SRB), EKVX; format: cell-based; settings: Homo sapiens, Non-Small Cell Lung Cancer, single dose of 10 μM, read-out: Cell Growth Percent
HCT-116 = test: NCI 60 cell line panel (SRB), HCT-116; format: cell-based; settings: Homo sapiens; HCT-116, Colon Cancer; single dose of 10 μM; read-out: Cell Growth Percent
NCI-H460 = test: NCI 60 cell line panel (SRB), NCI-H460; format: cell-based; settings: Homo sapiens; NCI-H460, Non-Small Cell Lung Cancer; single dose of 10 μM; read-out: Cell Growth Percent
MDA-MB-435 = test: NCI 60 cell line panel (SRB), MDA-MB-435; format: cell-based; settings: Homo sapiens; MDA-MB-435, Melanoma; single dose of 10 μM; read-out: Cell Growth Percent
DU-145 = test: NCI 60 cell line panel (SRB), DU-145; format: cell-based; settings: Homo sapiens; DU-145, Prostate Cancer; single dose of 10 μM; read-out: Cell Growth Percent
VEGFR-2 (KDR) = biological target: T1, VEGFR-2 (KDR) (Homo sapiens, UniProt P35968); test: In vitro VEGFR-2 tyrosine kinase activity (Kinase-Glo Plus luminescence, BPS Bioscience); format: biochemical; settings: for IC50: 5 concentrations 1 nM - 10 μM; for inhibition at 10 µM: single dose concentration of 10 μM
T1 construct: purchased BPS Bioscience 40301
T1 sequence (P35968 20-1356): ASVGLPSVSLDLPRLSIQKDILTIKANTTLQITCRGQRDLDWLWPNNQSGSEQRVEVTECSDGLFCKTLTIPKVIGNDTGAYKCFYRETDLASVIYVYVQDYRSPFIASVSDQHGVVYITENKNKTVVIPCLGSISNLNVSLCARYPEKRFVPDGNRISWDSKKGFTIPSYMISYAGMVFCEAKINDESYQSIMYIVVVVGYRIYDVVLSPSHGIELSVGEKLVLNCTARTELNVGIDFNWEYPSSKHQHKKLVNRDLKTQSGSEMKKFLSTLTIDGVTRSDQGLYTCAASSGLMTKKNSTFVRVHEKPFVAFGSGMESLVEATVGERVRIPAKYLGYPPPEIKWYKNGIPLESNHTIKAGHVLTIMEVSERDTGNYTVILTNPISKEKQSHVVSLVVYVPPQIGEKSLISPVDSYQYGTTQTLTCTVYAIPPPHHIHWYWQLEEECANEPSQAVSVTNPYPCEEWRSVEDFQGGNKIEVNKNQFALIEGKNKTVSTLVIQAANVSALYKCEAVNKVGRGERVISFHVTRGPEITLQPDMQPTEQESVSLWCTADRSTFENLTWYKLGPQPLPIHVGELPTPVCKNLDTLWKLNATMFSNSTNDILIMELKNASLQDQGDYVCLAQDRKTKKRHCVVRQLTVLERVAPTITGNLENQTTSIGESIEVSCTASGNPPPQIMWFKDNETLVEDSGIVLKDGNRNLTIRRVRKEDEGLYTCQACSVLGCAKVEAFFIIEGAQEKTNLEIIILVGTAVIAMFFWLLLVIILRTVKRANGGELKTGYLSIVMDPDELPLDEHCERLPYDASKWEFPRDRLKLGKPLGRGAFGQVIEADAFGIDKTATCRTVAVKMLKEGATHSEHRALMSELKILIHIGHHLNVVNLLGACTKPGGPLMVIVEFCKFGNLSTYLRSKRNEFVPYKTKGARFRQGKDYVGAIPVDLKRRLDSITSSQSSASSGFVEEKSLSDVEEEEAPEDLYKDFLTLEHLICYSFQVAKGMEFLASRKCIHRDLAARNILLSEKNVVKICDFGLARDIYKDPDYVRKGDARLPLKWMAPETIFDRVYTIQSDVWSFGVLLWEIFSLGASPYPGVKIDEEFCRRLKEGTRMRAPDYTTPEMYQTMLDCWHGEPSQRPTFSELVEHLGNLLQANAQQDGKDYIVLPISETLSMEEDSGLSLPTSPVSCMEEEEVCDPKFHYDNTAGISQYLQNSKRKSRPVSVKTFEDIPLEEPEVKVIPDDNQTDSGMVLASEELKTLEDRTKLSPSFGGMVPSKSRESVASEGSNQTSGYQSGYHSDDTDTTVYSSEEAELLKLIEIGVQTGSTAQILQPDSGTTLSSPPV

SK-MEL-5 = test: NCI 60 cell line panel (SRB), SK-MEL-5; format: cell-based; settings: Homo sapiens; SK-MEL-5, Melanoma; single dose of 10 μM; read-out: Cell Growth Percent
OVCAR-4 = test: NCI 60 cell line panel (SRB), OVCAR-4; format: cell-based; settings: Homo sapiens; OVCAR-4, Ovarian Cancer; single dose of 10 μM; read-out: Cell Growth Percent
MCF7 = test: NCI 60 cell line panel (SRB), MCF7; format: cell-based; settings: Homo sapiens; MCF7, Breast Cancer; single dose of 10 μM; read-out: Cell Growth Percent
MALME-3M = test: NCI 60 cell line panel (SRB), MALME-3M; format: cell-based; settings: Homo sapiens, Melanoma, single dose of 10 μM, read-out: Cell Growth Percent
UACC-257 = test: NCI 60 cell line panel (SRB), UACC-257; format: cell-based; settings: Homo sapiens; UACC-257, Melanoma; single dose of 10 μM; read-out: Cell Growth Percent
NCI-H322M = test: NCI 60 cell line panel (SRB), NCI-H322M; format: cell-based; settings: Homo sapiens, Non-Small Cell Lung Cancer, single dose of 10 μM, read-out: Cell Growth Percent
KM12 = test: NCI 60 cell line panel (SRB), KM12; format: cell-based; settings: Homo sapiens; KM12, Colon Cancer; single dose of 10 μM; read-out: Cell Growth Percent
SF-268 = test: NCI 60 cell line panel (SRB), SF-268; format: cell-based; settings: Homo sapiens; SF-268, CNS Cancer; single dose of 10 μM; read-out: Cell Growth Percent
K-562 = test: NCI 60 cell line panel (SRB), K-562; format: cell-based; settings: Homo sapiens, K562; K-562, Leukemia; single dose of 10 μM; read-out: Cell Growth Percent
A549/ATCC = test: NCI 60 cell line panel (SRB), A549/ATCC; format: cell-based; settings: Homo sapiens, Non-Small Cell Lung Cancer, single dose of 10 μM, read-out: Cell Growth Percent
[1] = test system: HUVEC umbilical vein endothelial cells; test: In vitro HUVEC anti-proliferative assay (alamarBlue); format: cell-based; settings: Homo sapiens, HUVEC proliferation at 10 μM, 72 hours; for activity at 10 µM: read-out: % Cell growth; for inhibition at 10 µM: read-out: % Cell inhibition
SW-620 = test: NCI 60 cell line panel (SRB), SW-620; format: cell-based; settings: Homo sapiens; SW-620, Colon Cancer; single dose of 10 μM; read-out: Cell Growth Percent
SNB-19 = test: NCI 60 cell line panel (SRB), SNB-19; format: cell-based; settings: Homo sapiens; SNB-19, CNS Cancer; single dose of 10 μM; read-out: Cell Growth Percent
T-47D = test: NCI 60 cell line panel (SRB), T-47D; format: cell-based; settings: Homo sapiens, T47D, Breast Cancer, single dose of 10 μM, read-out: Cell Growth Percent

SMILES	activity at 10 µM (SF-295)	activity at 10 µM (SK-MEL-28)	activity at 10 µM (SN12C)	activity at 10 µM (MDA-MB-231/ATCC)	activity at 10 µM (RXF 393)	activity at 10 µM (EKVX)	activity at 10 µM (HCT-116)	activity at 10 µM (NCI-H460)	activity at 10 µM (MDA-MB-435)	activity at 10 µM (DU-145)	activity at 10 µM (SK-MEL-5)	activity at 10 µM (OVCAR-4)	activity at 10 µM (MCF7)	activity at 10 µM (MALME-3M)	activity at 10 µM (UACC-257)	activity at 10 µM (NCI-H322M)	activity at 10 µM (KM12)	activity at 10 µM (SF-268)	activity at 10 µM (K-562)	activity at 10 µM (A549/ATCC)	also measured
Cc1cccc(NC(=O)Nc2ccc(Oc3ncnc4sc5c(c34)CCCC5)cc2)c1 [Compound 21b]	67.6%	91.6%	75.9%	81.9%	79%	62.8%	62.1%	65.2%	79.3%	81.3%	72.9%	61.2%	44.1%	104%	107%	91.2%	37.3%	72.6%	57.9%	66.5%	IC50 (VEGFR-2 (KDR)): 33.4 nM; activity at 10 µM [1]: 18%; inhibition at 10 µM [1]: 82%; activity at 10 µM (SW-620): 103%; activity at 10 µM (SNB-19): 72%; activity at 10 µM (T-47D): 49.2%
COc1cccc(NC(=O)Nc2ccc(Oc3ncnc4sc5c(c34)CCCC5)cc2)c1 [Compound 21c]	76.1%	83.7%	78.2%	69.6%	74%	66.2%	55.8%	65.7%	73.1%	82.4%	63.6%	56.6%	54.4%	88.5%	100%	95.8%	27.5%	72%	64.6%	61.2%	IC50 (VEGFR-2 (KDR)): 47 nM; activity at 10 µM [1]: 20.9%; inhibition at 10 µM [1]: 79.2%; activity at 10 µM (SW-620): 96.3%; activity at 10 µM (SNB-19): 70.2%; activity at 10 µM (T-47D): 41.7%
CCOC(=O)c1c(C)oc2ncnc(Nc3ccc(C(=O)Nc4ccc(OC)cc4)cc3)c12 [Compound 14b]	99.3%	95.2%	103%	91%	92%	91.1%	85.1%	97%	106%	97.1%	87.9%	95.6%	95.6%	120%	94.7%	112%	96.1%	101%	107%	93.3%	inhibition at 10 µM (VEGFR-2 (KDR)): 8%; melting point: 218 to 222 °C; activity at 10 µM (SW-620): 112%; activity at 10 µM (SNB-19): 108%; activity at 10 µM (T-47D): 91%
COc1cccc(NC(=O)Nc2ccc(Nc3ncnc4sc5c(c34)CCCC5)cc2)c1 [Compound 20c]	99%	93.3%	91%	89%	116%	89.6%	91%	106%	98.5%	105%	92.3%	88.8%	86.2%	79.9%	94.9%	98.8%	89.6%	99.5%	97.2%	78.3%	inhibition at 10 µM (VEGFR-2 (KDR)): 67%; melting point: 206 to 210 °C; activity at 10 µM (SW-620): 112%; activity at 10 µM (SNB-19): 95.2%; activity at 10 µM (T-47D): 66.4%
CCOC(=O)c1c(C)oc2ncnc(Nc3ccc(NC(=O)Nc4ccc(CC)cc4)cc3)c12 [Compound 15i]	109%	105%	107%	94.6%	98.2%	102%	78.7%	106%	102%	103%	93.7%	105%	94.9%	101%	111%	102%	103%	103%	98%	89.2%	inhibition at 10 µM (VEGFR-2 (KDR)): 23%; melting point: 242 to 246 °C; activity at 10 µM (SW-620): 113%; activity at 10 µM (SNB-19): 97.9%; activity at 10 µM (T-47D): 78.2%
